Assay results published in ChEMBL document CHEMBL5233275, “Effect of Flexibility, Lipophilicity, and the Location of Polar Residues on the Passive Membrane Permeability of a Series of Cyclic Decapeptides” (J Med Chem, 2021).
In brackets after ≈: the same amount, converted by molar mass. Where a SMILES comes first, the peptide text is derived from it. [ ]: non-standard residue; d: D form. NMeF = CN[C@@H](Cc1ccccc1)C(=O)O; NMeA = CN[C@@H](C)C(=O)O; dNMeA = CN[C@H](C)C(=O)O; Sar = CNCC(=O)O

Columns and labels:
Format in all cases: physicochemical
[1] = Decadiene/water partition coefficient, logD of compound at pH 7.4 by HPLC analysis
[2] = Solubility of the compound by high-throughput equilibrium solubility assay
[3] = Octanol/water partition coefficient, logD of compound at pH 7.4 by HPLC analysis

Structure (SMILES) | logD hydrocarbon water [1] | solubility thermodynamic [2] | logD [3]
CC(C)C[C@@H]1NC(=O)[C@H](C)N(C)C(=O)[C@H](CC(C)C)NC(=O)[C@H](Cc2ccccc2)N(C)C(=O)[C@@H](C)N(C)C(=O)[C@H](CC(C)C)NC(=O)[C@H](C)N(C)C(=O)[C@H](CC(C)C)NC(=O)[C@H](Cc2ccccc2)N(C)C(=O)[C@@H](C)N(C)C1=O (cyclo(L[NMeA]L[dNMeA][NMeF]L[NMeA]L[dNMeA][NMeF])) | 5.1 | 4 µM (≈ 4.46 µg/mL) | 
CC(C)C[C@@H]1NC(=O)[C@H](Cc2ccccc2)N(C)C(=O)[C@H]2CCCN2C(=O)[C@H](CC(C)C)NC(=O)[C@H](C)N(C)C(=O)[C@H](CC(C)C)NC(=O)[C@H](Cc2ccccc2)N(C)C(=O)[C@H]2CCCN2C(=O)[C@H](CC(C)C)NC(=O)[C@H](C)N(C)C1=O (cyclo(L[NMeA]L[dP][NMeF]L[NMeA]L[dP][NMeF])) | > 3.5 | 4 µM (≈ 4.56 µg/mL) | > 5.7
CC(C)C[C@@H]1NC(=O)[C@H](C)N(C)C(=O)[C@H](CC(C)C)NC(=O)[C@H](C)N(C)C(=O)[C@@H](C)N(C)C(=O)[C@H](CC(C)C)NC(=O)[C@H](C)N(C)C(=O)[C@H](CC(C)C)NC(=O)[C@H](C)N(C)C(=O)[C@@H](C)N(C)C1=O (cyclo(L[NMeA]L[dNMeA][NMeA]L[NMeA]L[dNMeA][NMeA])) | 2.7 | 477 µM (≈ 459 µg/mL) | 4.6
CC(C)C[C@@H]1NC(=O)[C@H](Cc2ccccc2)N(C)C(=O)[C@H]2CCCN2C(=O)[C@H](CC(C)C)NC(=O)[C@H](C)N(C)C(=O)[C@H]([C@@H](C)O)NC(=O)[C@H](Cc2ccccc2)N(C)C(=O)[C@H]2CCCN2C(=O)[C@H](CC(C)C)NC(=O)[C@H](C)N(C)C1=O | 4 | 15 µM (≈ 16.9 µg/mL) | 5.4
CC(C)C[C@@H]1NC(=O)[C@H]([C@@H](C)O)N(C)C(=O)[C@H]2CCCN2C(=O)[C@H](CC(C)C)NC(=O)[C@H](C)N(C)C(=O)[C@H](CC(C)C)NC(=O)[C@H](Cc2ccccc2)N(C)C(=O)[C@H]2CCCN2C(=O)[C@H](CC(C)C)NC(=O)[C@H](C)N(C)C1=O | 3.7 | 65 µM (≈ 71.1 µg/mL) | 5.7
CC(C)C[C@@H]1NC(=O)[C@H](C)N(C)C(=O)[C@H](CC(C)C)NC(=O)[C@H](C(C)C)N(C)C(=O)[C@@H](C)N(C)C(=O)[C@H](CC(C)C)NC(=O)[C@H](C)N(C)C(=O)[C@H](CC(C)C)NC(=O)[C@H](C(C)C)N(C)C(=O)[C@@H](C)N(C)C1=O | 3.8 | 560 µM (≈ 571 µg/mL) | 5.2
CC(C)C[C@@H]1NC(=O)[C@H](C)N(C)C(=O)[C@H](CC(C)C)NC(=O)[C@@H]2CCCN2C(=O)CN(C)C(=O)[C@H](CC(C)C)NC(=O)[C@H](C)N(C)C(=O)[C@H](CC(C)C)NC(=O)[C@@H]2CCCN2C(=O)CN(C)C1=O (cyclo(L[NMeA]L[Sar]PL[NMeA]L[Sar]P)) | 0.3 | > 1000 µM | 
CC(C)C[C@@H]1NC(=O)[C@H]([C@@H](C)O)N(C)C(=O)[C@H]2CCCN2C(=O)[C@H](CC(C)C)NC(=O)[C@H]([C@@H](C)O)N(C)C(=O)[C@H](CC(C)C)NC(=O)[C@H]([C@@H](C)O)N(C)C(=O)[C@H]2CCCN2C(=O)[C@H](CC(C)C)NC(=O)[C@H]([C@@H](C)O)N(C)C1=O | -0.8 | > 1000 µM | 
CC(C)C[C@@H]1NC(=O)[C@H]([C@@H](C)O)N(C)C(=O)[C@@H]2C[C@@H](O)CN2C(=O)[C@H](CC(C)C)NC(=O)[C@H](C)N(C)C(=O)[C@H](CC(C)C)NC(=O)[C@H](Cc2ccccc2)N(C)C(=O)[C@@H]2C[C@@H](O)CN2C(=O)[C@H](CC(C)C)NC(=O)[C@H](C)N(C)C1=O | -0.6 | 320 µM (≈ 360 µg/mL) | 4.7
CC(C)C[C@@H]1NC(=O)[C@@H]2CCCN2C(=O)[C@H]2CCCN2C(=O)[C@H](CC(C)C)NC(=O)[C@H](C)N(C)C(=O)[C@H](CC(C)C)NC(=O)[C@@H]2CCCN2C(=O)[C@H]2CCCN2C(=O)[C@H](CC(C)C)NC(=O)[C@H](C)N(C)C1=O | 1.6 | 220 µM (≈ 222 µg/mL) | 4.3
CC(C)C[C@@H]1NC(=O)[C@H](Cc2ccccc2)N(C)C(=O)[C@H]2CCCN2C(=O)[C@H](CC(C)C)NC(=O)[C@H](C)N(C)C(=O)[C@H](CC(C)C)NC(=O)[C@H](Cc2ccccc2)N(C)C(=O)[C@H]2CCCN2C(=O)[C@H](CC(C)C)NC(=O)[C@H]([C@@H](C)O)N(C)C1=O | 5 | 4 µM (≈ 4.68 µg/mL) | 5.7
CC(C)C[C@@H]1NC(=O)[C@H](Cc2ccccc2)N(C)C(=O)[C@H]2CCCN2C(=O)[C@H](CC(C)C)NC(=O)[C@H](C)N(C)C(=O)[C@H](CC(C)C)NC(=O)[C@H](Cc2ccccc2)N(C)C(=O)[C@H]2CCCN2C(=O)[C@H]([C@@H](C)O)NC(=O)[C@H](C)N(C)C1=O | 3.6 | 20 µM (≈ 22.5 µg/mL) | 5.1
CC(C)C[C@@H]1NC(=O)[C@H]([C@@H](C)O)N(C)C(=O)[C@H]2CCCN2C(=O)[C@H](CC(C)C)NC(=O)[C@H]([C@@H](C)O)N(C)C(=O)[C@H](CC(C)C)NC(=O)[C@H](C)N(C)C(=O)[C@H]2CCCN2C(=O)[C@H](CC(C)C)NC(=O)[C@H]([C@@H](C)O)N(C)C1=O | 0.4 | 827 µM (≈ 891 µg/mL) | 

Other lines, results leading:

logD hydrocarbon water [1] | solubility thermodynamic [2] | logD [3] | Structure (SMILES)
1.7 | 763 µM (≈ 776 µg/mL) |  | CC(C)C[C@@H]1NC(=O)[C@H](C)N(C)C(=O)[C@H]2CCCN2C(=O)[C@H](CC(C)C)NC(=O)[C@H](C)N(C)C(=O)[C@H](CC(C)C)NC(=O)[C@H](C)N(C)C(=O)[C@H]2CCCN2C(=O)[C@H](CC(C)C)NC(=O)[C@H]([C@@H](C)O)N(C)C1=O
3.8 | 57 µM (≈ 59.5 µg/mL) | 5.1 | CC(C)C[C@@H]1NC(=O)[C@H](C(C)C)N(C)C(=O)[C@H]2CCCN2C(=O)[C@H](CC(C)C)NC(=O)[C@H](C)N(C)C(=O)[C@H](CC(C)C)NC(=O)[C@H](C(C)C)N(C)C(=O)[C@H]2CCCN2C(=O)[C@H](CC(C)C)NC(=O)[C@H](C)N(C)C1=O
3.1 | 92 µM (≈ 93.4 µg/mL) | 5.1 | CC(C)C[C@@H]1NC(=O)[C@H](C)N(C)C(=O)[C@H](CC(C)C)NC(=O)[C@H]2CCCN2C(=O)[C@@H]2CCCN2C(=O)[C@H](CC(C)C)NC(=O)[C@H](C)N(C)C(=O)[C@H](CC(C)C)NC(=O)[C@H](C(C)C)N(C)C(=O)[C@@H](C)N(C)C1=O
2.5 | 794 µM (≈ 784 µg/mL) | 4.7 | CC(C)C[C@@H]1NC(=O)[C@H](C)N(C)C(=O)[C@H]2CCCN2C(=O)[C@H](CC(C)C)NC(=O)[C@H](C)N(C)C(=O)[C@H](CC(C)C)NC(=O)[C@H](C)N(C)C(=O)[C@H]2CCCN2C(=O)[C@H](CC(C)C)NC(=O)[C@H](C)N(C)C1=O
1.2 | > 1000 µM |  | CC(C)C[C@@H]1NC(=O)[C@H](C)N(C)C(=O)[C@H]2CCCN2C(=O)[C@H](CC(C)C)NC(=O)[C@H](C)N(C)C(=O)[C@H](CC(C)C)NC(=O)[C@H]([C@@H](C)O)N(C)C(=O)[C@H]2CCCN2C(=O)[C@H](CC(C)C)NC(=O)[C@H]([C@@H](C)O)N(C)C1=O
0.2 | 910 µM (≈ 913 µg/mL) | 4.1 | CC(C)C[C@@H]1NC(=O)[C@H](C)N(C)C(=O)[C@H]2CCCN2C(=O)[C@H](CC(C)C)NC(=O)[C@H](C)N(C)C(=O)[C@H](CC(C)C)NC(=O)[C@H](C)N(C)C(=O)[C@@H]2C[C@@H](O)CN2C(=O)[C@H](CC(C)C)NC(=O)[C@H](C)N(C)C1=O
0.4 | > 1000 µM | 2.7 | CC(C)C[C@@H]1NC(=O)[C@H](C)N(C)C(=O)[C@H]2CCCN2C(=O)[C@H](CC(C)C)NC(=O)[C@H](C)N(C)C(=O)[C@H]([C@@H](C)O)NC(=O)[C@H](C)N(C)C(=O)[C@H]2CCCN2C(=O)[C@H](CC(C)C)NC(=O)[C@H](C)N(C)C1=O
1.2 | 884 µM (≈ 926 µg/mL) | 3.8 | CC(C)C[C@@H]1NC(=O)[C@H]([C@@H](C)O)N(C)C(=O)[C@H]2CCCN2C(=O)[C@H](CC(C)C)NC(=O)[C@H](C)N(C)C(=O)[C@H](CC(C)C)NC(=O)[C@H]([C@@H](C)O)N(C)C(=O)[C@H]2CCCN2C(=O)[C@H](CC(C)C)NC(=O)[C@H](C)N(C)C1=O
1 | 445 µM (≈ 466 µg/mL) |  | CC(C)C[C@@H]1NC(=O)[C@H](C)N(C)C(=O)[C@H]2CCCN2C(=O)[C@H](CC(C)C)NC(=O)[C@H]([C@@H](C)O)N(C)C(=O)[C@H](CC(C)C)NC(=O)[C@H](C)N(C)C(=O)[C@H]2CCCN2C(=O)[C@H](CC(C)C)NC(=O)[C@H]([C@@H](C)O)N(C)C1=O
0.1 | > 1000 µM | 2.6 | CC(C)C[C@@H]1NC(=O)[C@H](C)N(C)C(=O)[C@H]2CCCN2C(=O)[C@H](CC(C)C)NC(=O)[C@H](C)N(C)C(=O)[C@H](CC(C)C)NC(=O)[C@H](C)N(C)C(=O)[C@H]2CCCN2C(=O)[C@H]([C@@H](C)O)NC(=O)[C@H](C)N(C)C1=O
4 | 220 µM (≈ 227 µg/mL) | 5.2 | CC(C)C[C@@H]1NC(=O)[C@H](C(C)C)N(C)C(=O)[C@H]2CCCN2C(=O)[C@H](CC(C)C)NC(=O)[C@@H](C)N(C)C(=O)[C@H](CC(C)C)NC(=O)[C@H](C(C)C)N(C)C(=O)[C@H](C)N(C)C(=O)[C@H](CC(C)C)NC(=O)[C@@H](C)N(C)C1=O
